Measured values taken from PubChem BioAssay (NCI).
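48-hour exposure; five concentrations; linearly interpolated endpoints. TGI denotes the concentration required for complete inhibition of growth.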

Legend:
Test in all cases: DTP human tumour cell line panel, 48 h
[1] = system: MALME-3M melanoma
[2] = system: SF-295 CNS
[3] = system: SK-MEL-2 melanoma
[4] = system: SK-OV-3 ovarian
[5] = system: NCI-H460 lung
[6] = system: HOP-62 NSCLC
[7] = system: SNB-75 CNS
[8] = system: SK-MEL-28 melanoma
[9] = system: OVCAR-8 ovarian
[10] = system: TK-10 renal
[11] = system: SW-620 colon
[12] = system: UACC-257 melanoma
[13] = system: HL-60(TB) leukemia
[14] = system: HCT-15 colon
[15] = system: EKVX NSCLC
[16] = system: CAKI-1 renal
[17] = system: UACC-62 melanoma
[18] = system: SN12C renal
[19] = system: IGROV1 ovarian
[20] = system: K-562 leukemia

SMILES | TGI [1] | TGI [2] | TGI [3] | TGI [4] | TGI [5] | TGI [6] | TGI [7] | TGI [8] | TGI [9] | TGI [10] | TGI [11] | TGI [12] | TGI [13] | TGI [14] | TGI [15] | TGI [16] | TGI [17] | TGI [18] | TGI [19] | TGI [20]
O=C(c1ccco1)C1CC(c2c(O)ccc3ccccc23)=NN1 (centres undefined) | 37.9 µM | 23.3 µM | 39.2 µM | 56.6 µM | 19.9 µM | 27.3 µM | 33.6 µM | 47.8 µM | 51.5 µM | 32.5 µM | 31 µM | 57.9 µM | 53.8 µM | > 100 µM | 32.4 µM | 38.8 µM | 26 µM | 46 µM | 42 µM | > 100 µM
O=[N+]([O-])c1ccc(C2=Nc3ccccc3SC(c3ccccc3)C2)cc1 (centres undefined) |  | 46.3 µM | 33.2 µM | 46 µM | 43.9 µM | 58.5 µM | 37.1 µM | 41.6 µM | 40.3 µM | > 100 µM | 27.8 µM | 51.6 µM | 40 µM | 30.9 µM | 44.3 µM | 35.8 µM | 27.3 µM | 32.2 µM | 33.3 µM | 67.6 µM
COC(=O)C1=C(O)C(C(=O)OC)[C@@]2(O)[C@@H](C(=O)OC)[C@H](C)[C@@H](C)[C@@H]1[C@@H]2C(=O)OC (some centres undefined) | > 100 µM |  | > 100 µM | > 100 µM | > 100 µM | > 100 µM | > 100 µM | > 100 µM |  | > 100 µM |  | > 100 µM | > 100 µM | > 100 µM | > 100 µM |  | > 100 µM | > 100 µM |  | > 100 µM
O=C(OCc1ccccc1)C(Cc1ccccc1)N(Cc1ccccc1)Cc1ccccc1 (centres undefined) | > 100 µM | > 100 µM | > 100 µM | > 100 µM | > 100 µM | > 100 µM | > 100 µM | > 100 µM | > 100 µM | > 100 µM | > 100 µM | > 100 µM | > 100 µM | > 100 µM | > 100 µM | > 100 µM | > 100 µM | > 100 µM | > 100 µM | > 100 µM
